Results taken from ChEMBL document CHEMBL1201862, “PubChem BioAssay data set” (2004).
Values joined by “and” are separate entries in the source; they are usually repeats but may differ in a detail not shown here. Identical values can stand only once. Active and inactive are the calls of the source.

Key:
[1] = tested on: Streptococcus sp. 'group A'; test: Streptococcus pyogenes SK(-)GAS viability under kanamycin – luminescence, BacTiterGlo, confirmation, counter-screen for streptokinase expression inhibitor project, dose response (AID 1900); assay type: functional, organism-based
[2] = target: T1, Replicative DNA helicase DnaB (Mycobacterium tuberculosis, UniProt P9WMR3); test: DnaB intein splicing inhibitors, dose response, biochemical, cell-free fluorescence (AID 449749); assay type: functional
T1 sequence (P9WMR3 whole entry): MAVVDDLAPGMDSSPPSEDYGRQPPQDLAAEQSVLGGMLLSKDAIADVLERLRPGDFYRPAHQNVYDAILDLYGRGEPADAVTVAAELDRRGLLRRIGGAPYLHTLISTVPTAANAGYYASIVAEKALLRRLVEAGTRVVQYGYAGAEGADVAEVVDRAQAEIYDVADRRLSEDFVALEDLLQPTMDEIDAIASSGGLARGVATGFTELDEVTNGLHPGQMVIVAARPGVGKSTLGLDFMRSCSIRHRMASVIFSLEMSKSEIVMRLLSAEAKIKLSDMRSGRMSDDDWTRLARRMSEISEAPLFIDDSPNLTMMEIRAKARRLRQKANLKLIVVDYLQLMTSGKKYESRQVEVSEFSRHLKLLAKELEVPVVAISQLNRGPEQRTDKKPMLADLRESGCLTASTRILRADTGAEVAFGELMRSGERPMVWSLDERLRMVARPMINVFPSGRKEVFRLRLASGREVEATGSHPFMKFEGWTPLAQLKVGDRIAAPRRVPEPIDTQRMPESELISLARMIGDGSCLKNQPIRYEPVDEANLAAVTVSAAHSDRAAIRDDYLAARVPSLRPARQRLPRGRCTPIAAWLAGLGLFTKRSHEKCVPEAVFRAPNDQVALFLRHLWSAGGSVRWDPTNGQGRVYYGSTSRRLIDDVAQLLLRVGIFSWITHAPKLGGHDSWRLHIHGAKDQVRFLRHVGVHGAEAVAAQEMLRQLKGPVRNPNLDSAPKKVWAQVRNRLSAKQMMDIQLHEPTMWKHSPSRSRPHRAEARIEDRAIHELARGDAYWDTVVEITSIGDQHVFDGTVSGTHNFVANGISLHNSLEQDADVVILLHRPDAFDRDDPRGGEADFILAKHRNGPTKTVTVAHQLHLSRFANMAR

Protein RecA = target: T2, Protein RecA (Mycobacterium tuberculosis, UniProt P9WHJ3); test: Fluorescence Cell-Free Homogeneous Dose Retest to Identify Inhibitors of RecA-Intein Splicing Activity. [Related pubchem assays (depositor defined):AID2097, AID2223, AID489010, AID492950]; assay type: functional
T2 sequence (P9WHJ3 whole entry): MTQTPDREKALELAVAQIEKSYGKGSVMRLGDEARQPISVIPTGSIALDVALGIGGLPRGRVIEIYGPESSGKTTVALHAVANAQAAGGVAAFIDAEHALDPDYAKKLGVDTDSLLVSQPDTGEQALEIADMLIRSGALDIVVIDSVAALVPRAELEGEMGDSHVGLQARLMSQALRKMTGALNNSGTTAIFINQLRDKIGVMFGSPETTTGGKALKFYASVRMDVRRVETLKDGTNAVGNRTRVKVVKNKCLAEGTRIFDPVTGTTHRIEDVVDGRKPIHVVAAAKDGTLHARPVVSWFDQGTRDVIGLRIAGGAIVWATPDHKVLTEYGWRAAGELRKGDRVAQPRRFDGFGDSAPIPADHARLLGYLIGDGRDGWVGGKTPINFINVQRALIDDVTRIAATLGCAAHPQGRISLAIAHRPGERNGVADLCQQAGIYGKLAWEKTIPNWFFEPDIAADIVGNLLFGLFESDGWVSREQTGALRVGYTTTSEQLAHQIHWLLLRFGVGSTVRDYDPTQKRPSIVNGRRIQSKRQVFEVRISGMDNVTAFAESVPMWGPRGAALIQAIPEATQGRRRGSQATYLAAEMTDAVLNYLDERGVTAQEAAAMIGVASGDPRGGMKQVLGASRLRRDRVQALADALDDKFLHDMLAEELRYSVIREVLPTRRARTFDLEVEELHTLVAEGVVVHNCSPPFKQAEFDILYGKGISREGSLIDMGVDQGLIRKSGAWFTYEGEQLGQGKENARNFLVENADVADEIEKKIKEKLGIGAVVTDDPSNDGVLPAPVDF

[3] = target: T3, Apoptotic protease-activating factor 1 (Homo sapiens, UniProt O14727); assay type: functional
T3 sequence (O14727 whole entry): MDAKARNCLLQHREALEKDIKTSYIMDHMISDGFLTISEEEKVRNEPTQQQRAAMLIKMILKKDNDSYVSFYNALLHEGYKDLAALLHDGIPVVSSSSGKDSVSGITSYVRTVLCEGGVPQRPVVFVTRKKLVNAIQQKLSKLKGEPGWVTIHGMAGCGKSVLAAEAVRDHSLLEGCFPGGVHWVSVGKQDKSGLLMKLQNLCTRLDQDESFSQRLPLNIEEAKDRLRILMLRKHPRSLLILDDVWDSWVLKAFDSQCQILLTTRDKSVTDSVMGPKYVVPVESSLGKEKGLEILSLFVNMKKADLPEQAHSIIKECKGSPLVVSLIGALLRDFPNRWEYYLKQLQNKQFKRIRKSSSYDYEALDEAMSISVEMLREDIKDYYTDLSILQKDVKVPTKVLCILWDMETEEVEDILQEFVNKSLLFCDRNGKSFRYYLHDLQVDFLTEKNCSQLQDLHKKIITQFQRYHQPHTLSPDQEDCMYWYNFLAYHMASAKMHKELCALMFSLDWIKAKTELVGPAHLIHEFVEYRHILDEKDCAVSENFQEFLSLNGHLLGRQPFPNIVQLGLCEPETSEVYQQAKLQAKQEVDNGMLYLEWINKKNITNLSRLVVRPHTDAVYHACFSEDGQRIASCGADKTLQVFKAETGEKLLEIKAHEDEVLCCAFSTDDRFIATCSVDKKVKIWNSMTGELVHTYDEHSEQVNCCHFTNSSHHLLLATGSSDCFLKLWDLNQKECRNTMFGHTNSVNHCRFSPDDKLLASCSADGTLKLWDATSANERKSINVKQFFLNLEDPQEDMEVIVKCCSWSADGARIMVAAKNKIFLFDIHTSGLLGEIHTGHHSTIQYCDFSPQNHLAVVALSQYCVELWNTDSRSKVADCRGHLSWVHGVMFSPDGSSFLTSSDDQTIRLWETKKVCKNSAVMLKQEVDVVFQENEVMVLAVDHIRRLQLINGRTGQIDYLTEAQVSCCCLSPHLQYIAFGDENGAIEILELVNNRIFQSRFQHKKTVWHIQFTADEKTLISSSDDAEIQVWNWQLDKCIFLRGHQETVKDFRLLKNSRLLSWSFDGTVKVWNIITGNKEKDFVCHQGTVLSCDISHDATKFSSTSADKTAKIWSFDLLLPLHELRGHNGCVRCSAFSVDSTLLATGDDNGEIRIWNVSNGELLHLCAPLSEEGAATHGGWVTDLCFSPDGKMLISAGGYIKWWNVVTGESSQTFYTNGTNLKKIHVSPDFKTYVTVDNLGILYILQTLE

O=C(Nc1ccccc1Cl)/C(Cl)=C(\Cl)[S+]([O-])c1ccccc1 (stereo not given)
active: EC50 ([1]; Streptococcus sp. 'group A') 1530 nM | AC50 [2] 2.7 µM | EC50 (Protein RecA) 0.935 µM

CCCCCCCCCCCCCCCCn1cc[n+](C)c1
active: EC50 [1] 1970 nM | EC50 ([1]; Streptococcus sp. 'group A') 1720 nM | AC50 [2] 3.37 µM and 3.76 µM | IC50 [3] 22.2 µM and 21.1 µM | EC50 (Protein RecA) 9.84 µM and 8.55 µM

O=C(NC1(O)C(=O)c2ccccc2C1=O)c1ccccc1
active: AC50 [2] 7.72 µM | IC50 [3] 3.22 µM | EC50 (Protein RecA) 16.4 µM

Cc1cc(C)nc(/N=c2/ssnc2Cl)c1
active: IC50 [3] 2.9 µM

Cc1ccc(C)c(S(=O)(=O)/N=C2\C=C(NS(=O)(=O)c3ccccc3)C(=O)c3ccccc32)c1
active: AC50 [2] 2.17 µM | IC50 [3] 12 µM | EC50 (Protein RecA) 2.25 µM
